Results: ChEMBL document CHEMBL1201862, “PubChem BioAssay data set” (2004)
Calls of active or inactive are those of the source.

How the values were obtained:
[1] = inhibitors of intracellular T. cruzi replication, confirmation, NIH3T3 host cells, beta-gal luminescence (AID 2044); type: functional, cell-based;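 further: intracellular parasites grown in NIH/3T3 mouse fibroblasts as host cells; luminescent beta-galactosidase reporter signal from transgenic T. cruzi replicating inside host cells; inhibitors lower the luminescence signal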
[2] = cytotoxicity toward NIH3T3 fibroblasts, dose response, counter-screen, cell-based, ATP luminescence, mouse fibroblasts (AID 2010); type: functional;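 further: cells exposed to compound for about 90 hours before reading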
[3] = biological target: T1, Methionyl-tRNA synthetase, putative (Trypanosoma brucei brucei, UniProt Q38C91); type: functional, Trypanosoma brucei brucei strain 927/4 GUTat10.1
T1 sequence (Q38C91 whole entry): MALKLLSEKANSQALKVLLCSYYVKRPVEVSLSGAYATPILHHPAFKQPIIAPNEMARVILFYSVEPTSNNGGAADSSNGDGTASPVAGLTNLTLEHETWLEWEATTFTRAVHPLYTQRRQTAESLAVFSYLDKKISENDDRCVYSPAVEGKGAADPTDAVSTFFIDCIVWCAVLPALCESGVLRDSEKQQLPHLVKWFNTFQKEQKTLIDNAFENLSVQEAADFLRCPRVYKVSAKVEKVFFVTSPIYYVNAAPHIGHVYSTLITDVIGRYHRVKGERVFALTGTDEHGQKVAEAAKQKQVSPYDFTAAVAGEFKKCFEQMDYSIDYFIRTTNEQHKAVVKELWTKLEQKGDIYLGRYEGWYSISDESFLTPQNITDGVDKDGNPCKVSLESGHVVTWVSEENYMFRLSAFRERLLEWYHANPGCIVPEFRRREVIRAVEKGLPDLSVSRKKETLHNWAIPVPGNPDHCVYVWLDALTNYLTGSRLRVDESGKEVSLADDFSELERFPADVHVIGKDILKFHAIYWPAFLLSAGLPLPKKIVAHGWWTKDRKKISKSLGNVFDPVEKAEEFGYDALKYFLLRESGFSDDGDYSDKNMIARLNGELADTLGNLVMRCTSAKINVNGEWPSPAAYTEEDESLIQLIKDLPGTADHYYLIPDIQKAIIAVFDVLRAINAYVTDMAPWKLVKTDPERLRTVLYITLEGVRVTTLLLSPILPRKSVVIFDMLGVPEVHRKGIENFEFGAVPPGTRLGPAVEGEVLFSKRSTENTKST

[4] = Counterscreen for inhibitors of Trypanosoma brucei methionyl tRNA synthetase (MetRS): Luminescence-based cell-based high throughput dose response assay to identify compounds that are cytotoxic to Jurkat human T lymphocyte cells.; type: functional
[5] = biological target: T1, Methionyl-tRNA synthetase, putative; type: functional, Trypanosoma brucei brucei strain 927/4 GUTat10.1; remark: listed apart in the source
[6] = AlphaScreen signal interference compounds, dose response, artefact control for ARNT-TACC3 interaction inhibitor project, biochemical, luminescence, cherry-pick (AID 651705); type: functional;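 further: AlphaScreen bead proximity signal that flags compounds interfering with the detection technology; potency reflects signal decrease which marks the compound as an assay artifact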
[7] = biological target: T2, Low molecular weight phosphotyrosine protein phosphatase (Homo sapiens, UniProt P24666); type: functional; settings: read-out: IC50_Mean
T2 sequence (P24666 whole entry): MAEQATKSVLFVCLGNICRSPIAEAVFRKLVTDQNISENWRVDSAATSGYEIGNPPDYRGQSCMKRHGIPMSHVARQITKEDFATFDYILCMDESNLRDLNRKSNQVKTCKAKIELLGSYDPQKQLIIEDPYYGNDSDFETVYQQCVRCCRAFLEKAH

[8] = biological target: T2, Low molecular weight phosphotyrosine protein phosphatase; type: functional; settings: read-out: IC50_Mean; remark: listed apart in the source
[9] = biological target: DNA (cytosine-5)-methyltransferase 1 (Homo sapiens, UniProt P26358); assay: DNMT1 methyltransferase inhibitors, confirmation, biochemical, fluorescent molecular beacon (AID 602386); type: functional
Caspase-6 = biological target: T3, Caspase-6 (Homo sapiens, UniProt P55212); assay: human caspase-6 inhibitors, dose response, biochemical, VEID-R110 fluorescence, cherry-pick (AID 720632)
T3 sequence (P55212 whole entry): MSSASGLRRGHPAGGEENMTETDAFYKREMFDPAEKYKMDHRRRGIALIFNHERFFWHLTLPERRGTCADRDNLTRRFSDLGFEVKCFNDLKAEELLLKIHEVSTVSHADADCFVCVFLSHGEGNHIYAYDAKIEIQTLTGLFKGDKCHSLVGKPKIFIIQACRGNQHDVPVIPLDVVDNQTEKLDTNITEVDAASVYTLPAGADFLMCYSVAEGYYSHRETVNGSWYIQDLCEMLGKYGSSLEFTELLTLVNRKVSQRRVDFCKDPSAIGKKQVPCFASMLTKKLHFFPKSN

[10] = biological target: T4, Small ubiquitin-related modifier 1 (Homo sapiens, UniProt P63165); assay: inhibitors of SUMO1 peptide binding, dose response, biochemical, fluorescence polarization, uHTS hits (AID 624382); type: functional; settings: read-out: IC50_Mean
[11] = biological target: T4, Small ubiquitin-related modifier 1; assay: inhibitors of SUMO1 partner interactions, dose response, biochemical, FRET (AID 624383); type: functional; settings: read-out: IC50_Mean
[12] = biological target: Arf-GAP with SH3 domain, ANK repeat and PH domain-containing protein 1 (Homo sapiens, UniProt Q9ULH1); type: functional;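 further: biochemical fluorescence polarization dose–response screen measuring inhibition of ASAP1; ASAP1 GAP domain stimulating GTP hydrolysis by truncated human ARF1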
Melanocortin receptor 4 = Melanocortin receptor 4 (Homo sapiens, UniProt P32245); type: functional, cell-based;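 further: Cell-based assay with luminescence read-out, confirmatory dose-response testing for agonist activity of biased ligands at MC4R; human U2OS cells with tagged receptor and beta-arrestin; potency of agonists that increase receptor coupling to beta-arrestin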
[13] = biological target: Tyrosine-protein phosphatase non-receptor type 11 (Homo sapiens, UniProt Q06124); assay: SHP2 phosphatase inhibition, dose response, selectivity assay for STEP inhibitor project, biochemical (AID 602367); type: functional; settings: read-out: IC50_Mean
[14] = biological target: Tyrosine-protein phosphatase non-receptor type 5 (Homo sapiens, UniProt P54829); assay: STEP phosphatase inhibitors, confirmation, biochemical, fluorescence intensity, uHTS hits (AID 602372); type: functional; settings: read-out: IC50_Mean
[15] = biological target: Dual specificity protein phosphatase 3 (Homo sapiens, UniProt P51452); assay: VHR phosphatase inhibition, dose response, selectivity assay for STEP inhibitor project, biochemical (AID 602374); type: functional; settings: read-out: IC50_Mean
[16] = biological target: Nuclear receptor subfamily 5 group A member 2 (Homo sapiens, UniProt O00482); type: functional, cell-based;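 further: HEK293T cells transfected with LRH-1 and a StAR promoter luciferase reporter; potency for inhibitors that lower LRH-1 driven reporter light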
Steroidogenic factor 1 = Steroidogenic factor 1 (Homo sapiens, UniProt Q13285); assay: Counterscreen for inverse agonists of the liver receptor homolog-1 (LRH-1; NR5A2): Luminescence-based cell-based high throughput dose response assay to identify inverse agonists of the Steroidogenic Factor 1 Nuclear Receptor (SF1; NR5A1).; type: functional
[17] = StAR promoter reporter inhibition counter-screen, dose response, counter-screen for LRH-1 inverse agonist project, cell-based, luminescence, luciferase reporter (AID 651969); type: functional
Hexokinase = biological target: T5, Hexokinase (Trypanosoma brucei, UniProt Q38C41); assay: Confirmation assay for inhibitors of Trypanosoma brucei hexokinase 1-Analogue-first series. [Related pubchem assays (depositor defined):AID1430, AID1632, AID2516, AID2560, AID2579, AID2600, AID449725, AID492951]; type: functional
T5 sequence (Q38C41 whole entry): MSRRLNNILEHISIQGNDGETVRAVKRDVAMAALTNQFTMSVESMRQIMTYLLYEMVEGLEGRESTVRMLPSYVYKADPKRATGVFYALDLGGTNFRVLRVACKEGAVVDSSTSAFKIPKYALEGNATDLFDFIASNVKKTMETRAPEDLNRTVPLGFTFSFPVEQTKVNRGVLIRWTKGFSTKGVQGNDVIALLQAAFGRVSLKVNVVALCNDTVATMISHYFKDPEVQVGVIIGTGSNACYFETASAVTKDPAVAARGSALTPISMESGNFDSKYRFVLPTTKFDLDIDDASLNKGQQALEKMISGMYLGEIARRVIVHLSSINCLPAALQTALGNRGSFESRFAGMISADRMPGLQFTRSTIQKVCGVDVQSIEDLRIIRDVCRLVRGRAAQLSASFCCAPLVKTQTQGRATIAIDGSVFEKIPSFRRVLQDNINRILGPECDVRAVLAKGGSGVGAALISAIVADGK

[18] = biological target: Glucose-6-phosphate 1-dehydrogenase (Homo sapiens, UniProt P11413); assay: human G6PD enzyme inhibitors, dose response, selectivity assay for P. falciparum G6PD inhibitor project, biochemical, fluorescence (AID 504792); type: functional
[19] = Fluorescence-based cell-based high throughput dose response assay for inhibitors of the interaction of nucleotide-binding oligomerization domain containing 2 (NOD2) and the receptor-interacting serine-threonine kinase 2 (RIPK2).; type: functional; settings: Homo sapiens
Vero = assay: Vero cell toxicity, dose response, cytotoxicity control, plate reader, cherry-pick samples (AID 687020); type: functional, cell-based; settings: Chlorocebus sabaeus
[20] = Luminescence Cell-Based Dose Retest to Confirm Inhibitors of Cancer Stem Cells. [Related pubchem assays (depositor defined):AID2717, AID2721]; type: functional; settings: Homo sapiens
[21] = cytotoxicity in HMLE control line with eGFP shRNA, dose response, counter-screen for HMLE_sh_ECad selective toxicity project, cell-based, HMLE_sh_eGFP, luminescence (AID 463074); type: functional, Homo sapiens;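 further: HMLE human mammary epithelial cells expressing control shRNA against eGFP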
[22] = biological target: Photoreceptor-specific nuclear receptor (Homo sapiens, UniProt Q9Y5X4); type: functional, cell-based;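 further: CHO-S cells with Gal4-NCOR and VP16-NR2E3 two-hybrid luciferase reporter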
Genome polyprotein = Genome polyprotein (dengue virus type 2, UniProt P29990); assay: Dengue-2 NS5 methyltransferase inhibitors, primary screen, biochemical, confirmation dose response (AID 588689); type: functional
[23] = biological target: T6, Rac GTPase-activating protein 1 (Homo sapiens, UniProt Q9H0H5); assay: MgcRacGAP GTPase-activating activity inhibitors, confirmation, biochemical, ADP Hunter fluorescence, primary and confirmatory (AID 624330); type: functional
T6 sequence (Q9H0H5 whole entry): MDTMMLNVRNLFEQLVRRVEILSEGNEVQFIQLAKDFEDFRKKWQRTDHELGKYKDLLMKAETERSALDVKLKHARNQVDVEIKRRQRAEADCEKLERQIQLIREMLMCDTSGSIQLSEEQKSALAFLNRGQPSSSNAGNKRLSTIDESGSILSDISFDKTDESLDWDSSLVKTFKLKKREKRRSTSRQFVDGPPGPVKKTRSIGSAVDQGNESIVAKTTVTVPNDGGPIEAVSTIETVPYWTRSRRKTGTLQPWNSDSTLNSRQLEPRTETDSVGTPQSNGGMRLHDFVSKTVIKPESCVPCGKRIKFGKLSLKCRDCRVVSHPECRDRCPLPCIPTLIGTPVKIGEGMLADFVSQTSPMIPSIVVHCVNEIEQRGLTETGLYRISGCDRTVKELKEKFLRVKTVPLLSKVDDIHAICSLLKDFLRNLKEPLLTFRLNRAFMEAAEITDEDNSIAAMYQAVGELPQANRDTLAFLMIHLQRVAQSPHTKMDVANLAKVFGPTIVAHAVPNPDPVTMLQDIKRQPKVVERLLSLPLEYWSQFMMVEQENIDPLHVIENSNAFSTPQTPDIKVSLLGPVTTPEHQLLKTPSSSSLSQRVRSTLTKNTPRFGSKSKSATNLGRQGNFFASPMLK

[24] = biological target: Aryl hydrocarbon receptor (Homo sapiens, UniProt P35869); settings: Potency;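 further: confirmatory quantitative high-throughput screen measuring activation of the AhR signaling pathway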

T4 sequence (P63165 whole entry): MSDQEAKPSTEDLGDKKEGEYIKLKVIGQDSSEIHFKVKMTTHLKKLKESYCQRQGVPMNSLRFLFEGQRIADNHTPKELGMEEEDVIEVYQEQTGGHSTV
Nuclear receptor subfamily 5 group A member 2, sequence (O00482 whole entry): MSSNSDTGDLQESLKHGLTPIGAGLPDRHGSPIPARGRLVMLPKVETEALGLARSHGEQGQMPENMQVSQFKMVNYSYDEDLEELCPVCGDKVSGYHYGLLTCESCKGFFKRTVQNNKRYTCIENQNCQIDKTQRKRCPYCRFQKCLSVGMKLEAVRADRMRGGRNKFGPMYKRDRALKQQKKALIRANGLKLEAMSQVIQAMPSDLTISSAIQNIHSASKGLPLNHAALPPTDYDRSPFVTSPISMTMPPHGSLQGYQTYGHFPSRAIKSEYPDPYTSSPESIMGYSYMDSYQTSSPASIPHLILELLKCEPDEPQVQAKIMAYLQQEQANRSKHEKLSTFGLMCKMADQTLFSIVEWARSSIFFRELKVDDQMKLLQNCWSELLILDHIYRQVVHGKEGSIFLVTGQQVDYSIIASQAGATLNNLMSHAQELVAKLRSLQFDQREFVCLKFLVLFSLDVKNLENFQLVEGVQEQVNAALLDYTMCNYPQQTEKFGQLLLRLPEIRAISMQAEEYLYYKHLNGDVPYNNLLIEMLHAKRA
Steroidogenic factor 1, sequence (Q13285 whole entry): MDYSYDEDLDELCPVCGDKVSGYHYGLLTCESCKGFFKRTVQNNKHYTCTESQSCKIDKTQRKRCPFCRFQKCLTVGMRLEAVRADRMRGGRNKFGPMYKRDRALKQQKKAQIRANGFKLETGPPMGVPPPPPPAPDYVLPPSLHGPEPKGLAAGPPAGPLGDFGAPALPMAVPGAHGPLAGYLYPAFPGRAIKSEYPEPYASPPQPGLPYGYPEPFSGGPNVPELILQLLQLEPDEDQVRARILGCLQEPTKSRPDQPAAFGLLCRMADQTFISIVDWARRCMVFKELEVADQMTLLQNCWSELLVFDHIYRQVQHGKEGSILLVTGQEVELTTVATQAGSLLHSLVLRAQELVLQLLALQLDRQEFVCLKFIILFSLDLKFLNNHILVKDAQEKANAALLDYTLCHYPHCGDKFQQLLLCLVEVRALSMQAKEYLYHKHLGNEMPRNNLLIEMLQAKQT
Melanocortin receptor 4, sequence (P32245 whole entry): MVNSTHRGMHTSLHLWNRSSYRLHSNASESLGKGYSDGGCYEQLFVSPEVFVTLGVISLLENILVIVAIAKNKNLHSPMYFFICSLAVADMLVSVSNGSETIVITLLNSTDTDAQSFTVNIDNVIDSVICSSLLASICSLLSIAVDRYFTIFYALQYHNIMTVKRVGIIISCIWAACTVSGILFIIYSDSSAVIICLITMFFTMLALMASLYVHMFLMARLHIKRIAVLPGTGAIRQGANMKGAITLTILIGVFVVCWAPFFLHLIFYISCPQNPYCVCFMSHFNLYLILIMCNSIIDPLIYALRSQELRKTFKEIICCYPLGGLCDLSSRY
Tyrosine-protein phosphatase non-receptor type 11, sequence (Q06124 whole entry): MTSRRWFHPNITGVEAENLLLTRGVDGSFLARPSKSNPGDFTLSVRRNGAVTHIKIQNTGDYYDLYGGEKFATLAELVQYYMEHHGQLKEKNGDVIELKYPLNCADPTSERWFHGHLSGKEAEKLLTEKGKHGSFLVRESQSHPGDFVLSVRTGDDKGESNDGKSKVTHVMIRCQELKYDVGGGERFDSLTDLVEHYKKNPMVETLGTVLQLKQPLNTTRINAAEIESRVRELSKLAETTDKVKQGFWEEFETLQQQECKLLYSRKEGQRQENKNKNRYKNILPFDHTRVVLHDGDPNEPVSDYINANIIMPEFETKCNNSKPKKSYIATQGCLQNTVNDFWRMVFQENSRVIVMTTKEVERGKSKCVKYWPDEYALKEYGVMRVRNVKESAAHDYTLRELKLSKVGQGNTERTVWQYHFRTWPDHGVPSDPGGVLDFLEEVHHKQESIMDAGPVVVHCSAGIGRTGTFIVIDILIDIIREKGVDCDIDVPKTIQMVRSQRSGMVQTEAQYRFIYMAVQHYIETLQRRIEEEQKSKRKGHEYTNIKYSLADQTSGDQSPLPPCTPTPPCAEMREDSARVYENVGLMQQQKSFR
Arf-GAP with SH3 domain, ANK repeat and PH domain-containing protein 1, sequence (Q9ULH1 whole entry, the tested form may be a part): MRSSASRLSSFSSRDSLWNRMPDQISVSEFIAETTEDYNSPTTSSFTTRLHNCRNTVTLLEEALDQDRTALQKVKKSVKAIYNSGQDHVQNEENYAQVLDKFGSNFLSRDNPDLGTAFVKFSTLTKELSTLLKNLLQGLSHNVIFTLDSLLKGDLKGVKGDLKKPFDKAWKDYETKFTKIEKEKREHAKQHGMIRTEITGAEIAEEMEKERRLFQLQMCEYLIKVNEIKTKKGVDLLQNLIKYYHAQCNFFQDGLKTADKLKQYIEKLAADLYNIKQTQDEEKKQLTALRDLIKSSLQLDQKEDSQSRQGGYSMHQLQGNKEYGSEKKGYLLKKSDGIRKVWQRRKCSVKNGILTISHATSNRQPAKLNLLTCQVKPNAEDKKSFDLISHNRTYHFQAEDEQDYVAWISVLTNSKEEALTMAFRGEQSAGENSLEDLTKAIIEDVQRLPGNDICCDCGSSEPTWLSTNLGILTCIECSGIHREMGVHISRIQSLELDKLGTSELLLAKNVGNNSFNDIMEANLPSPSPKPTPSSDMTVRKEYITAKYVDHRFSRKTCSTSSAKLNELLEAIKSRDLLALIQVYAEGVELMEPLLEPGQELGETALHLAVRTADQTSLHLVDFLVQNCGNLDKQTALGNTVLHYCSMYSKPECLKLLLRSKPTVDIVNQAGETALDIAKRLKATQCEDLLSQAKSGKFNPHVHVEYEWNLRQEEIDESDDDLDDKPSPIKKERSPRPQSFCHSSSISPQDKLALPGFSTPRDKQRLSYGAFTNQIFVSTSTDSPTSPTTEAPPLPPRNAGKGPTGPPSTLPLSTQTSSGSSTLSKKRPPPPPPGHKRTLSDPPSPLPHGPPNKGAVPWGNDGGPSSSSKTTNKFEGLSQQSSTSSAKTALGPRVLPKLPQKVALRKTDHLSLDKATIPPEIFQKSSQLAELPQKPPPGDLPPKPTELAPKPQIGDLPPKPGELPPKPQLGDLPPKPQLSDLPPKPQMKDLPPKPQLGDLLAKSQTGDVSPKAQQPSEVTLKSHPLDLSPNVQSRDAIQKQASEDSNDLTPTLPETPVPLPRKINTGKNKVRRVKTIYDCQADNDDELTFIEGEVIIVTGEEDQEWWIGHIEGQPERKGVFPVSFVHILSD
DNA (cytosine-5)-methyltransferase 1, sequence (P26358 whole entry): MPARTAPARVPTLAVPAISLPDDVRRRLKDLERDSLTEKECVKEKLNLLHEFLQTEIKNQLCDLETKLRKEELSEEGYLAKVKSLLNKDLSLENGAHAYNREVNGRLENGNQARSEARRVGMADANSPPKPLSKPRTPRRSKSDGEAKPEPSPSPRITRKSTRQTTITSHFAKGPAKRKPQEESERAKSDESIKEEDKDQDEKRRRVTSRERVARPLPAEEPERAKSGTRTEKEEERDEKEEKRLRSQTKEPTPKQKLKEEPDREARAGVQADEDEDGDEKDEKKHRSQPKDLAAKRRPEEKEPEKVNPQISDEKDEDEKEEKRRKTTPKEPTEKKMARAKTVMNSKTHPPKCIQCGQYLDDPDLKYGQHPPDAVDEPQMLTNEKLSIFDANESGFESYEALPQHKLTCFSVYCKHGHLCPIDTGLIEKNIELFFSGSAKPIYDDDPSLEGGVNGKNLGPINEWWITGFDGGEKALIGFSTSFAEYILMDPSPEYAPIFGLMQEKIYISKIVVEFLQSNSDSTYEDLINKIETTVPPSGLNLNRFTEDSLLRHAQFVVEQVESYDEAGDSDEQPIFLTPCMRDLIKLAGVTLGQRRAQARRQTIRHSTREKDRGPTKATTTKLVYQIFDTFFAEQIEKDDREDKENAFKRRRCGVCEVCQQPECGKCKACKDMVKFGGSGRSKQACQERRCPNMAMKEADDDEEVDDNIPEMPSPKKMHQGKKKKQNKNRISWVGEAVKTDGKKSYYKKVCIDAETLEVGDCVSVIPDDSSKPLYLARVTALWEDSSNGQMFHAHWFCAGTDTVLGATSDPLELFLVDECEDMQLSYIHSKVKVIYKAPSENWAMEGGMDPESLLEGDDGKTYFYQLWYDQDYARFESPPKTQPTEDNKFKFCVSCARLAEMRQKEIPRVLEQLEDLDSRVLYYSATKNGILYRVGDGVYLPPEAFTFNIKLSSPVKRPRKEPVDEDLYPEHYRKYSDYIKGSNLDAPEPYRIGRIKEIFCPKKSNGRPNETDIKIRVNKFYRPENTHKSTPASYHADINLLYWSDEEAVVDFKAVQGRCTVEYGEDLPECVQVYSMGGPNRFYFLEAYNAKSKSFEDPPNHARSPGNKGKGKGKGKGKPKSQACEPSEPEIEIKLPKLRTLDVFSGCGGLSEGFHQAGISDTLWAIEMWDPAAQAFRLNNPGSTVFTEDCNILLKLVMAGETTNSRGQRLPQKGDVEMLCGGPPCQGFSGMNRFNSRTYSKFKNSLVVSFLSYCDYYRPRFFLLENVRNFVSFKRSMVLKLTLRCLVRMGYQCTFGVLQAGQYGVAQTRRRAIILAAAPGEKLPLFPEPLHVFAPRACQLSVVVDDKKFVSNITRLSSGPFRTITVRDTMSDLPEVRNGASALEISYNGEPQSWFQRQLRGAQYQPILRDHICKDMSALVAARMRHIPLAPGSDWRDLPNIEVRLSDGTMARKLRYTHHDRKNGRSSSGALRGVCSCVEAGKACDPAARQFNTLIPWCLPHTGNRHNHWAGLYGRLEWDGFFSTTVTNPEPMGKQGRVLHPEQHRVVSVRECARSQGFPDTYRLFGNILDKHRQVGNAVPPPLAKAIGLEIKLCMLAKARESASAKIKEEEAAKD
Dual specificity protein phosphatase 3, sequence (P51452 whole entry): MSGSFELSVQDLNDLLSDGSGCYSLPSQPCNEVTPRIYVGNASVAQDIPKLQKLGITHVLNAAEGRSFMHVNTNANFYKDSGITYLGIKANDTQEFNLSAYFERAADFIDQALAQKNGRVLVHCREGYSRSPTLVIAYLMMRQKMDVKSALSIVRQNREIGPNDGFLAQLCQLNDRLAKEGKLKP

## OC(COc1ccc2cc(Br)ccc2c1)Cn1ccnc1 (stereo not given)
[1]
  EC50: < 0.1 µM (active)
[2]
  EC50: > 60 µM (not active)
[3]
  IC50: 28.2 µM (inactive)
[4]
  IC50: 83.3 µM (inactive)
[5]
  IC50: 94.1 µM (inactive)
cells
  EC50: 0.126 µM (active)

## COc1ccc(NC(=O)CSc2c(C)nn(-c3nnc(C)c(O)n3)c2C)cc1
[6]
  AC50: 133 µM (active)

## Cc1cc(C)c2c(N)c(C(=O)c3ccc(Cl)c(Cl)c3)sc2n1
[1]
  EC50: 0.166 µM (active)
[2]
  EC50: > 60 µM (not active)
[7]
  IC50: 14.2 µM (active)
[8]
  IC50: 4.5 µM (active)

## COc1ccc(S(=O)(=O)N2CCN(C(=O)C3COc4ccccc4O3)CC2)cc1 (stereo not given)
[9]
  IC50: 5.82 µM (active)
Caspase-6
  AC50: 0.685 µM (active)

## COC(=O)c1cccc(Nc2nc(-c3ccncc3)nc3ccccc23)c1
[10]
  IC50: > 66.6 µM (inactive)
[11]
  IC50: 4.11 µM (active)
[12]
  IC50: 10.5 µM (inactive)

## CC(C)c1ccc(NS(=O)(=O)c2ccc(-n3cccn3)cc2)cc1
Melanocortin receptor 4
  EC50: > 89.2 µM (inactive)

## Cc1ccccc1N1CCN(C(=S)c2ccc(-c3cccc([N+](=O)[O-])c3)o2)CC1
[13]
  IC50: 11.3 µM (active)
[14]
  IC50: 62.2 µM (inactive)
[15]
  IC50: 4.61 µM (active)

## NC(=O)C1CCN(C(=O)COc2ccc3c4c(c(=O)oc3c2)CCCC4)CC1
[16]
  IC50: 3.98 µM (active)
Steroidogenic factor 1
  IC50: 4.4 µM (active)
[17]
  IC50: 35.9 µM (inactive)

## O=C(Cn1sc2ccccc2c1=O)Nc1ccc(Cl)cc1
Hexokinase
  IC50: 12.9 µM (active)
[18]
  IC50: 12.5 µM (active)
[19]
  IC50: 7.04 µM (active)

## O=C(c1cccc(Cl)c1)N1CCC2(CC1)NCCc1[nH]cnc12
Vero
  AC50: 34 µM (active)

## COc1cc(/C=C2\Oc3ccc(C#Cc4ccc(O)cc4)cc3C2=O)cc(OC)c1
[20]
  AC50: 1.41 µM (active)
[21]
  AC50: 29.7 µM (active)
Melanocortin receptor 4
  EC50: > 89.2 µM (inactive)

## Cc1nn(CC(=O)Nc2ccc3c(c2)OCCO3)c(C)c1[N+](=O)[O-]
[16]
  IC50: 14.3 µM (inactive)
Steroidogenic factor 1
  IC50: 3.1 µM (active)
[17]
  IC50: 35.9 µM (inactive)

## COc1ccc([C@@H]2C[C@H]3[C@@H](CN2S(=O)(=O)c2ccccc2)C(=O)C[C@@H](c2cccc(Cl)c2)N3S(=O)(=O)c2ccc(C)cc2)cc1
[22]
  IC50: 39.8 µM (inactive)

## Cc1nnc(O)nc1N/N=C/c1ccco1
[6]
  AC50: 119 µM (active)

## COc1ccccc1Nc1ccc2c(O)cc(S(=O)(=O)O)cc2c1
Genome polyprotein
  IC50: 60.5 µM (active)
[10]
  IC50: > 66.6 µM (inactive)
[11]
  IC50: 3.41 µM (active)
[23]
  IC50: 90.4 µM (active)

## CCNP(=S)(OC)O/C(C)=C/C(=O)OC(C)C (stereo not given) [PROPETAMPHOS]
[24]
  AC50: 50.1 µM (inconclusive)
